Data on three compounds can be found in publication PMC2867052 (Journal of contaminant hydrology, 2009).

The format of data set [1] is physicochemical. To be noted: for Dissolution Rate Coeff. (kL): model-calibrated initial value.
The format of data set [2] is physicochemical. The settings on record: for Sherwood Number (Sh): calculated from initial dissolution rate coefficient; for Dissolution Rate Coeff. (kL): model-calibrated initial value.
For data set [3] the following is noted: 10% by weight HPCD.
[4] abbreviates: 1 Component - HPCD (10% by weight).
The mark [5] stands for this setting: 3 Component - HPCD (10% by weight).
Setting [6] is: single-component organic liquid.

Read-outs that look alike come from different tables or passages of the source.

With `CCCCc1ccccc1` [butylbenzene], the “E-Normalized Rate Coeff. (kL/E)” value in data set [1] (1 Component - HPCD) came to 16 ± 2 h⁻¹; in data set [1] (3 Component - HPCD) it was 15 ± 4 h⁻¹; in data set [2] (3 Component - Water), 15 ± 11 h⁻¹. Further, the “Sherwood Number (Sh)” value in data set [1] (setting [4]) is on record as 100; in data set [1] (setting [5]), 82; in data set [2] (3 Component - Water), 0.6. The “Dissolution Rate Coeff. (kL)” value in data set [1] (setting [4]) amounted to 1902 ± 240 h⁻¹; in data set [1] (setting [5]), 1900 ± 490 h⁻¹; in data set [2] (3 Component - Water), 15 ± 11 h⁻¹.
Turning to `CCc1ccccc1` [ethylbenzene], the results for the “10% HPCD Enhancement Factor (E°)” value in data set [3] (setting [6]) and in data set [3] (three-component organic liquid (Tol-EB-BB)) were 20 and 19, respectively. The results for the “E-Normalized Rate Coeff. (kL/E)” value in data set [1] (1 Component - HPCD), in data set [1] (3 Component - HPCD) and in data set [2] (3 Component - Water) were 17 ± 3 h⁻¹, 18 ± 3 h⁻¹ and 17 ± 3 h⁻¹, respectively. Besides, the “Sherwood Number (Sh)” value in data set [1] (setting [4]) is 15; in data set [1] (setting [5]) it was 14; in data set [2] (3 Component - Water), 0.6. In addition, the “Dissolution Rate Coeff. (kL)” value in data set [1] (setting [4]) was 342 ± 57 h⁻¹; in data set [1] (setting [5]), 341 ± 57 h⁻¹; in data set [2] (3 Component - Water), 17 ± 3 h⁻¹.
Take `Cc1ccccc1` [toluene, Toluene]: the “10% HPCD Enhancement Factor (E°)” value in data set [3] (setting [6]) is reported as 7.7. Also, the “E-Normalized Rate Coeff. (kL/E)” value in data set [1] (1 Component - HPCD) was found to be 21 ± 6 h⁻¹; in data set [1] (3 Component - HPCD), 21 ± 4 h⁻¹; in data set [2] (1 Component - Water) it was 22 ± 5 h⁻¹; in data set [2] (3 Component - Water), 21 ± 4 h⁻¹. Further, the “Sherwood Number (Sh)” value in data set [1] (setting [4]) and in data set [1] (setting [5]) was 6 throughout. Further, the “Dissolution Rate Coeff. (kL)” value in data set [1] (setting [4]) stood at 161 ± 44 h⁻¹; in data set [1] (setting [5]) it was 165 ± 30 h⁻¹; in data set [2] (3 Component - Water) it was 21 ± 4 h⁻¹.
